{"source": "paper PMC12751000", "about": "“Dual Agonist/Antagonist Modulation of α9-Containing Nicotinic Acetylcholine Receptors by 2‑Ammoniumethyl Ethers of Stilbenol and Stilbenol Analogues” (Journal of Medicinal Chemistry, 2025)", "origin": "cited, not measured here", "target": "α7[L247T] mutant receptor", "parameters": "method as in previous findings, citation number not given", "details": "chick α7[L247T] mutant; ref: previous findings, citation number not given; cited from earlier work", "data": [{"smiles": "CC[N+](CC)(CC)CCOc1ccc(/C=C/c2ccccc2)cc1", "note": "[Compound 1, 2-triethylammonium ethyl ether of 4-stilbenol]", "values": [{"measurement": "EC50", "value": 0.2, "unit": "nM"}]}]}
